# According to US20250109146A1, “BRIDGED RING-SUBSTITUTED HETEROARYL-PYRAN DERIVATIVE, AND USE THEREOF” (priority 2022, published 2025):
# Where a name gives a salt, the structure may show the parent alone.
# Assays:
# [1] = test system: p-ERK in KRAS^G12D mutant AGS cells; experiment: Assay of p-ERK inhibition in AGS cells (HTRF); type: cell-based; settings: Homo sapiens, 3 hours incubation with compound
# Description: • 1) AGS cells were inoculated in a transparent 96-well cell culture plate, and each well contained 80 μL of cell suspension and 10000 cells. […] 80 μL of medium containing 0.02% serum was added to each well. The cell plate was incubated in a carbon dioxide incubator at 37° C. overnight; • 3) 2 μL of the compound was weighed and added to 78 μL of the cell medium. After the mixture was mixed thoroughly, 20 μL of the solution of compound was weighed and added to the corresponding well of the cell plate. […] 50 μL of 1× cell lysate was added to each well. […] The mixture was incubated at room temperature for at least 4 hours; • 7) After completion of the incubation, HTRF was read with multi-label analyzer: excitation: 320 nm, emission: 615 nm, 665 nm; • 8). IC50 of the compound to be assayed was calculated. […]
# • 1) AGS cells were inoculated in a transparent 96-well cell culture plate, and each well contained 80 μL of cell suspension and 10000 cells. […] The mixture was incubated at room temperature for at least 4 hours; • 7) After completion of the incubation, HTRF was read with multi-label analyzer: excitation: 320 nm, emission: 615 nm, 665 nm; • 8). IC50 of the compound to be assayed was calculated.
# [2] = test system: p-ERK in KRAS^G12D mutant AsPC-1 cells; experiment: Assay of p-ERK inhibition in AsPC-1 cells (HTRF); type: cell-based; settings: HTRF method, 1 hour incubation with compound
# Description: • 1) ASPC-1 cells were inoculated in a transparent 96-well cell culture plate, and each well contained 80 μL of cell suspension and 8000 cells. The cell plate was inoculated in a carbon dioxide incubator at 37° C. overnight; • 2) After completion of the incubation, the cell supernatant was discarded. […] 2 μL of the compound was weighed and added to 78 μL of a cell starvation medium. After the mixture was mixed thoroughly, 20 μL of the solution of compound was weighed and added to the corresponding well of the cell plate. […] 50 μL of cell lysate was added to each well. […] The mixture was incubated at room temperature for 4 hours; • 7) After completion of the incubation, HTRF was read with multi-label analyzer: excitation: 320 nm, emission: 615 nm, 665 nm.
Compound,IC50 [1],IC50 [2]
C#Cc1c(F)ccc2cc(N)cc(C3Cc4nc(OC[C@@]56CCCN5C[C@H](F)C6)nc(N5CC6CCC(C5)N6)c4CO3)c12 (stereo partly drawn) [Compound 3 hydrochloride],64.6 nM,–
CC#Cc1cc(N)c(F)c([C@@H]2Cc3nc(OC[C@]45C=CCN4CCC5)nc(N4CC5CCC(C4)N5)c3CO2)c1C(F)(F)F [Compound 10 hydrochloride],–,1.1 nM
CC#Cc1cc(N)c(F)c([C@H]2Cc3nc(OC[C@]45CCCN4C/C(=C\F)C5)nc(N4CC5CCC(C4)N5)c3CO2)c1C(F)(F)F [Compound 11 formate],–,0.9 nM
